System: E3 ubiquitylation reaction (E1, E2, and E3)
Test: E3 ligase assay using 5′-IAF-UBA1, inhibition assays
Format: biochemical, human
Settings: E1, E2, and E3 pre-incubated with various concentrations for 30 minutes at room temperature; detection with 5′-IAF-UBA1 and immunoblot; FIGS. 9A-D
Procedure: E3 ligase reactions contained 10 nM GST-Praja1, 500 nM 6× His-SUMO-CARP2 or 500 nM 6× His-SUMO-MuRF1 as E3s, 50 nM E1, 150 nM UbcH5c (E2), 500 ng Ubiquitin, 2 mM ATP, 50 mM Tris-HCl pH8.0, 5 mM MgCl2, 0.1 mM DTT. For measuring SCF^Atrogin-1 E3 ligase activity, the reaction was assembled essentially as described above except that the E3 ligase contained 6× His-SUMO-Atrogin-1, Cullin-1 (“Cul1”), Roc-1 (“Rbx-1”) and 6× His-Skp1 (250 nM each). In order to obtain large amounts of the Cul1-Rbx1 complex for the SCF complex, we used a procedure to overexpress the Cul1-Rbx1 complex in E. coli. Zheng, et al., Nature, 416(6882):703-9 (2002). The Cul1 gene was split into two halves (residues 1-410 and residues 411-776) and co-expressed with GST-tagged Rbx1 as three different polypeptide chains. A PCR product encoding Skp1 was generated using the primers 5′-[…]-3′ (SEQ ID NO:28) and 5′-[…]-3′ (SEQ ID NO:29) and human Skp1 cDNA as the template. […]
For inhibition assays, reactions containing E1, E2, and E3 were pre-incubated with various concentrations of NEM and ubistatin A for 30 minutes at room temperature before initiating the reaction by adding ubiquitin and ATP. […] The wells were washed with 1× PBS and readings were taken using a fluorescence plate reader with excitation and emission wavelengths of 485 nm and 535 nm, respectively. […]

CCN1C(=O)C=CC1=O [NEM]
inhibition of the E3 ubiquitylation assay: inhibited

O=C(Nc1ccc(/C=C/c2ccc(NC(=O)c3cc(S(=O)(=O)O)c4cccnc4c3O)cc2S(=O)(=O)O)c(S(=O)(=O)O)c1)c1cc(S(=O)(=O)O)c2cccnc2c1O [Ubistatin A]
inhibition of the E3 ubiquitylation assay: inhibited

— patent US20110143958A1, “Methods of Identifying Modulators of Ubiquitin Ligases” (priority 2008, published 2011)
